Results on 23 molecules are retold here after patent US20230116972A1, “CD38 MODULATORS AND METHODS OF USE THEREOF” (Cytokinetics, Inc., priority 2021, published 2023).

One assay concerns the target T1, human CD38 (Homo sapiens, UniProt P28907).
T1 sequence (P28907 1-300): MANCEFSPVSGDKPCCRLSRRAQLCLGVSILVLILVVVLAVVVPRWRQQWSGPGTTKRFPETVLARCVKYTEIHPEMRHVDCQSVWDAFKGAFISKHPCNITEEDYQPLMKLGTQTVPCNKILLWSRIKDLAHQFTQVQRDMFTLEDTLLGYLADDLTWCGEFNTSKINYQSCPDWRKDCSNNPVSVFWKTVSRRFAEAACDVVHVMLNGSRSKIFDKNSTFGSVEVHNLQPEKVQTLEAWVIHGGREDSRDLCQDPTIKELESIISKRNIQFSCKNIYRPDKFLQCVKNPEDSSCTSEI
Put plainly: human recombinant CD38 enzyme assay (hydrolysis of NAD+). The following applies: human recombinant CD38, 0.4 nM enzyme, 62.5 μM NAD+; read-out: hCD38 BioChem IC50. The assay is classed as biochemical. As for the experimental part:
(§1) Compounds described herein were assayed for their ability to inhibit the hydrolysis of NAD+ by the protein CD38. The human and mouse recombinant enzyme assays measure the inhibition of the enzyme activity by compounds using recombinant enzymes and substrates in a buffered cell-free system. The assay conditions closely mimic cellular environments. Dose responses were measured using an assay to detect the hydrolysis of NAD+. All experiments were performed in the 384-well format. […] Enzyme reactions were initiated with the addition of 10 μL of a solution containing NAD+ substrate. Subsequent detection of remaining NAD+ was determined by first converting NAD+ to NADH using alcohol dehydrogenase, then using the resulting NADH to reduce resazurine to the fluorescent product resorufin. […] Following an incubation of 60 min at ambient temperature, 10 μL of 120 mM ethanol+20 U/ml alcohol dehydrogenase+30 mM semicarbazide+0.03 mM CD38 inhibitor in 50 mM HEPES, pH 7.5, 0.2 mg/ml BSA, was added and incubated at ambient temperature for 15 min. Then 10 μl 0.32 mM NaOH was added to stop the ADH reaction (plates incubated at ambient temperature for 15 min), followed by 30 μL of 0.05 mM resazurine+1000 mU/ml Diaphorase in 200 mM Tris-HCl, pH 7.7 for 15 min at ambient temperature. The plates were read for fluorescence (Excitation/Emission=540 nm/590 nm) using an EnVision plate reader. […] Note that, in Table 4, the “Compound No” corresponds to the compound numbers in Table 1.

The next assay concerns the target T2, mouse CD38 (Mus musculus, UniProt P56528).
T2 sequence (P56528 1-304): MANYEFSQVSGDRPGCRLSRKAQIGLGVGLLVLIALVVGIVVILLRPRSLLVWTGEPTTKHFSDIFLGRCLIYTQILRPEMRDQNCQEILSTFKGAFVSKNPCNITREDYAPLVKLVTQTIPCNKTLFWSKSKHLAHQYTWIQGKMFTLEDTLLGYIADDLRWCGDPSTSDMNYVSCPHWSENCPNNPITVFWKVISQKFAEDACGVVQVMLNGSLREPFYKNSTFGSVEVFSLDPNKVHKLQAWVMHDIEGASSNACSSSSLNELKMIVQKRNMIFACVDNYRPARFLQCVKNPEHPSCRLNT
Put plainly: mouse recombinant CD38 enzyme assay (hydrolysis of NAD+). The assay is classed as biochemical. The settings on record: read-out: mCD38 BioChem IC50. As to the method:
as §1

Regarding `COCCO[C@@H]1CC[C@@H](NC(=O)c2nccc(-c3cncn3C)n2)C1` [Compound 351, N-((1R,3R)-3-(2-methoxyethoxy)cyclopentyl)-4-(1-methyl-1H-imidazol-5-yl)pyrimidine-2-carboxamide], the IC50 on human CD38 is 676 nM; on mouse CD38, 267 nM.

Take `Cc1ccc(NC(=O)c2cccc(-c3cncs3)n2)cn1` [Compound 51, N-(6-methylpyridin-3-yl)-6-(thiazol-5-yl)picolinamide]: the figures for the IC50 at human CD38 and on mouse CD38 were 1200 nM and 487 nM, respectively.

As for `CO[C@H]1CC[C@H](NC(=O)c2nc(-c3cncn3C)cnc2C)CC1` [Compound 298, N-((1r,4r)-4-methoxycyclohexyl)-3-methyl-6-(1-methyl-1H-imidazol-5-yl)pyrazine-2-carboxamide], the IC50 at human CD38 amounted to 319 nM; at mouse CD38, 166 nM.

With `Cn1cncc1-c1nc(C(=O)N[C@H]2CC[C@H](C(F)F)CC2)cc(C(C)(C)O)n1` [Compound 177, N-((1r,4r)-4-(difluoromethyl)cyclohexyl)-6-(2-hydroxypropan-2-yl)-2-(1-methyl-1H-imidazol-5-yl)pyrimidine-4-carboxamide], the IC50 at human CD38 was 35 nM; on mouse CD38 it was 9 nM.

In the case of `COCCO[C@H]1CC[C@H](NC(=O)c2cc(C3CCOCC3)nc(-c3cncn3C)n2)C1` [Compound 353, N-((1S,3S)-3-(2-methoxyethoxy)cyclopentyl)-2-(1-methyl-1H-imidazol-5-yl)-6-(tetrahydro-2H-pyran-4-yl)pyrimidine-4-carboxamide], the IC50 on human CD38 turned out to be 20.8 nM; at mouse CD38 it was 4.2 nM.

As for `CCO[C@H]1C[C@H](NC(=O)c2nccc(-n3ccnc3)n2)C1` [Compound 301, N-((1r,3r)-3-ethoxycyclobutyl)-4-(1H-imidazol-1-yl)pyrimidine-2-carboxamide], the IC50 stood at 621 nM at human CD38 and 199 nM at mouse CD38.

In the case of `Cc1cnc(-c2cncn2C)nc1C(=O)N[C@H]1CC[C@H](OC(F)F)CC1` [Compound 335, N-((1r,4r)-4-(difluoromethoxy)cyclohexyl)-5-methyl-2-(1-methyl-1H-imidazol-5-yl)pyrimidine-4-carboxamide], the values for the IC50 at human CD38 and on mouse CD38 were 28.7 nM and 13.5 nM, respectively.

In the case of `O=C(Nc1ccc(C(F)(F)F)nc1)c1cccc(-n2cnnc2)n1` [Compound 143, 6-(4H-1,2,4-triazol-4-yl)-N-(6-(trifluoromethyl)pyridin-3-yl)picolinamide], the results for the IC50 at human CD38 and at mouse CD38 were 2040 nM and 1970 nM, respectively.

Consider `Cn1cncc1-c1ccnc(C(=O)N[C@@H]2CC[C@@H](O)C2)n1` [Compound 302, N-((1R,3R)-3-hydroxycyclopentyl)-4-(1-methyl-1H-imidazol-5-yl)pyrimidine-2-carboxamide], for which the IC50 was 369 nM on human CD38 and 118 nM on mouse CD38.

Consider `Cn1cncc1-c1ncc(F)c(C(=O)N[C@H]2CC[C@H](OC(F)F)CC2)n1` [Compound 341, N-((1r,4r)-4-(difluoromethoxy)cyclohexyl)-5-fluoro-2-(1-methyl-1H-imidazol-5-yl)pyrimidine-4-carboxamide], for which the results for the IC50 on human CD38 and on mouse CD38 were 8.7 nM and 3.8 nM, respectively.

Take `CO[C@H]1CC[C@H](NC(=O)c2cc(C3CC3)nc(-c3cncs3)n2)CC1` [Compound 108, 6-Cyclopropyl-N-((1r,4r)-4-methoxycyclohexyl)-2-(thiazol-5-yl)pyrimidine-4-carboxamide]: the IC50 stood at 711 nM at human CD38 and 33 nM on mouse CD38.

For `CO[C@H]1CC[C@H](NC(=O)c2cc(C3CC4(COC4)C3)nc(-c3cncn3C)n2)CC1` [Compound 327, N-((1r,4r)-4-methoxycyclohexyl)-2-(1-methyl-1H-imidazol-5-yl)-6-(2-oxaspiro[3.3]heptan-6-yl)pyrimidine-4-carboxamide], the IC50 was determined as 22.1 nM on human CD38 and 2.6 nM on mouse CD38.

As for `O=C(N[C@H]1CC[C@H](O)C1)c1nccc(-n2ccnc2)n1` [Compound 304, N-((1S,3S)-3-hydroxycyclopentyl)-4-(1H-imidazol-1-yl)pyrimidine-2-carboxamide], the IC50 at human CD38 worked out at 1270 nM; at mouse CD38, 244 nM.

On to `CO[C@H]1CC[C@H](NC(=O)c2cc(C(C)(C)O)nc(-c3cncn3C)n2)CC1` [Compound 178, 6-(2-Hydroxypropan-2-yl)-N-((1r,4r)-4-methoxycyclohexyl)-2-(1-methyl-1H-imidazol-5-yl)pyrimidine-4-carboxamide], for which the IC50 was 57 nM at human CD38 and 13 nM at mouse CD38.

With `O=C(NC1CC2(COC2)C1)c1nccc(-n2ccnc2)n1` [Compound 290, 4-(1H-imidazol-1-yl)-N-(2-oxaspiro[3.3]heptan-6-yl)pyrimidine-2-carboxamide], the IC50 at human CD38 came to 1220 nM; on mouse CD38 it was 191 nM.

Take `Cn1cncc1-c1nc(C(=O)NC2CCC(F)(F)CC2)cc(C2CCC2)n1` [Compound 182, 6-cyclobutyl-N-(4,4-difluorocyclohexyl)-2-(1-methyl-1H-imidazol-5-yl)pyrimidine-4-carboxamide]: the results for the IC50 on human CD38 and at mouse CD38 were 11 nM and 2 nM, respectively.

On to `Cn1cncc1-c1nc(C(=O)N[C@H]2CC[C@H](OCC(F)(F)F)CC2)cc(C2CCOCC2)n1` [Compound 337, 2-(1-methyl-1H-imidazol-5-yl)-6-(tetrahydro-2H-pyran-4-yl)-N-((1r,4r)-4-(2,2,2-trifluoroethoxy)cyclohexyl)pyrimidine-4-carboxamide], for which the IC50 came to 10.4 nM at human CD38 and 1.9 nM on mouse CD38.

Consider `Cn1cncc1-c1ncc(F)c(C(=O)N[C@H]2CC[C@H](OC(F)(F)F)CC2)n1` [Compound 340, 5-fluoro-2-(1-methyl-1H-imidazol-5-yl)-N-((1r,4r)-4-(trifluoromethoxy)cyclohexyl)pyrimidine-4-carboxamide], for which the values for the IC50 at human CD38 and at mouse CD38 were 11.9 nM and 6.3 nM, respectively.

For `COCCO[C@H]1C[C@H](NC(=O)c2nccc(-n3ccnc3)n2)C1` [Compound 223, 4-(1H-imidazol-1-yl)-N-((1r,3r)-3-(2-methoxyethoxy)cyclobutyl)pyrimidine-2-carboxamide], the IC50 at human CD38 was 1630 nM; at mouse CD38, 459 nM.

With `Cn1cncc1-c1ccnc(C(=O)N[C@H]2CC[C@H](OCC(F)(F)F)CC2)n1` [Compound 343, 4-(1-methyl-1H-imidazol-5-yl)-N-((1r,4r)-4-(2,2,2-trifluoroethoxy)cyclohexyl)pyrimidine-2-carboxamide], the IC50 on human CD38 was 24.3 nM; on mouse CD38 it was 13.6 nM.

Turning to `O=C(Nc1ccc(C(F)(F)F)nc1)c1cc(C(F)(F)F)nc(-c2cncs2)n1` [Compound 115, 2-(thiazol-5-yl)-6-(trifluoromethyl)-N-(6-(trifluoromethyl)pyridin-3-yl)pyrimidine-4-carboxamide], the IC50 on human CD38 came out at 1260 nM; on mouse CD38 it was 494 nM.

Consider `CO[C@H]1CC[C@H](NC(=O)c2cc(C)cc(-c3cncs3)n2)CC1` [Compound 133, N-(4-methoxycyclohexyl)-4-methyl-6-(thiazol-5-yl)picolinamide], for which the IC50 is 1730 nM at human CD38 and 135 nM on mouse CD38.

Turning to `Cn1cncc1-c1nc(C(=O)Nc2ccc(OC(F)F)nc2)cc(C2CCC(F)(F)CC2)n1` [Compound 342, 6-(4,4-difluorocyclohexyl)-N-(6-(difluoromethoxy)pyridin-3-yl)-2-(1-methyl-1H-imidazol-5-yl)pyrimidine-4-carboxamide], the IC50 at human CD38 was determined as 19.9 nM; on mouse CD38, 2.9 nM.
